Laboratory results taken from article PMC3384522 (Bioconjugate Chemistry, 2011).

What was measured:
Format in all cases: binding
[1] = biological target: T1, Bacillus anthracis DHPS (BaDHPS) (Bacillus anthracis, UniProt Q81VW8)
[2] = biological target: T1, Bacillus anthracis DHPS (BaDHPS); remark: listed apart in the source
[3] = biological target: BSA (Bos taurus, UniProt P02769); experiment: Incubation of probe in 1% BSA monitored by FP; details: FP absorbance significantly reduced
Chain of BSA (P02769 25-607): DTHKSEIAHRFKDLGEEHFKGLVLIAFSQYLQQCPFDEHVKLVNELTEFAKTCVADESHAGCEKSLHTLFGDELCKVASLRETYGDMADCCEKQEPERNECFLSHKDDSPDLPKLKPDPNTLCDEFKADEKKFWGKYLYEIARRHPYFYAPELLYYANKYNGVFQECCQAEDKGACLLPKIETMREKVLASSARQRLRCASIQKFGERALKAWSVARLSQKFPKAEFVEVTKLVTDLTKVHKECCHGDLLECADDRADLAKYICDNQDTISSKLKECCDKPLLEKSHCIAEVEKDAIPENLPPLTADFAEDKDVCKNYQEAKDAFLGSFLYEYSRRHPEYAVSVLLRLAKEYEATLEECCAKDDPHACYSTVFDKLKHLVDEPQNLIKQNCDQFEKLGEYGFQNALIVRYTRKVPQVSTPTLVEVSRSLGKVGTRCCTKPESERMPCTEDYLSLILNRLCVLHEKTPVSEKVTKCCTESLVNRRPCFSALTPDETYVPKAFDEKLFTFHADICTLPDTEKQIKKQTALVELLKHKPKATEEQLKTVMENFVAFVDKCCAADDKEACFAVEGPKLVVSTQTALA

T1 sequence (Q81VW8 1-280): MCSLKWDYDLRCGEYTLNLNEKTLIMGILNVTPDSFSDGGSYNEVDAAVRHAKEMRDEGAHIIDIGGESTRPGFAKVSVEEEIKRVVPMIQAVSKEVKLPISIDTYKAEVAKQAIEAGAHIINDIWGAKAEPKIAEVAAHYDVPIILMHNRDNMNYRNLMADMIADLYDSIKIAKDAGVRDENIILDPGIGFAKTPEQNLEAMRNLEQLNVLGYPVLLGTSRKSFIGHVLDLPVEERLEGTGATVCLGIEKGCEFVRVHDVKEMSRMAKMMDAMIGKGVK

Row | Structure (SMILES) | Binding site N (ITC) [1] | ΔH (ITC) [1] | Competitive displacement of FP probe 4 from BaDHPS [2] | Non-specific protein binding (FP in 1% BSA) [3]
1 | CC(C(=O)NCCOCCOCCNC(=O)c1ccc2c(c1)C(=O)OC21c2ccc(O)cc2Oc2cc(O)ccc21)c1nn(C)c2nc(N)[nH]c(=O)c2c1=O (centres unmarked) [compound 4, N-(2-(2-(2-(2-(7-Amino-1-methyl-4,5-dioxo-1,4,5,6-tetrahydropyridazino[3,4-d]pyrimidin-3-yl)propanamido)ethoxy)ethoxy)ethyl)-3',6'-dihydroxy-3-oxo-3H-spiro[isobenzofuran-1,9'-xanthene]-5-carboxamide] | 1.09 ± 0.0464 | -2.8 ± 0.159 kcal/mol | – | –
2 | Nc1nc2ncc(CNc3ccc(C(=O)O)cc3)nc2c(=O)[nH]1 [pteroic acid] | – | – | able to compete off the FP probe 4 | –
3 | Nc1ccc(S(N)(=O)=O)cc1 [SIA, sulfanilamide] | – | – | not able to compete off the FP probe 4 | –
4 | Cc1cc(NS(=O)(=O)c2ccc(N)cc2)no1 [SMX, sulfamethoxazole] | – | – | not able to compete off the FP probe 4 | –
5 | Nc1nc(NCCOCCOCCNC(=O)c2ccc3c(c2)C(=O)OC32c3ccc(O)cc3Oc3cc(O)ccc32)c(N=O)c(=O)[nH]1 [compound 3] | 1.59 ± 0.0108 | -5.9 ± 0.059 kcal/mol | – | non-specific protein binder
